Assay results from patent publication US20250275539A1, “APYRASE INHIBITORS” (Texas Crop Science, Inc., priority 2024, published 2025).
Like-named read-outs stand apart in the source and are kept apart here.

Tests used:
apyrase = experiment: Apyrase inhibition assay (screen for apyrase inhibitors, phosphate release read at 630 nm); format: biochemical; details: inhibitor conc at 1 mM (10 μl added), 3 mM ATP, pH 6.5, room temperature 1 hr
[1] = tested on: Brown Rust (Puccinia recondita) on wheat; experiment: Greenhouse crop test: control of Brown Rust on wheat in combination with commercial fungicides; format: in vivo; details: wheat JB Diego, inoculated 24 hours after treatment, evaluated at fourteen days; for Amistar (% control of the disease, compound + fungicide): with Amistar 0.04 L/ha; for Balaya (% control of the disease, compound + fungicide): with Balaya 0.25 L/ha; for Imtrex (% control of the disease, compound + fungicide): with Imtrex 0.45 L/ha; for Proline (% control of the disease, compound + fungicide): with Proline 0.15 L/ha
Method: In this method, exemplary compounds were evaluated for their ability to control Brown Rust (Puccinia recondita) on wheat in a controlled greenhouse environment in combination with one of four fungicides, Amistar, Imtrex, Proline or Balaya. In these studies, wheat plants (JB Diego) were used. Seeds were sown in 9 cm diameter pots to a depth of 1 to 2 cm using Petersfield potting compost (75% medium grade peat, 12% screened sterilized loam, 3% medium grade vermiculite, 10% grit (5 mm screened, lime free), 1.5 kg PG mix per m3, lime to pH5.5-6.0 and wetting agent (Vitax Ultrawet 200 ml per m3) and germinated/grown at 23 C under a 16 h day/8 h night light regime. Plants were treated two to three weeks after sowing when they were at the BBCH 11 growth stage ([…]). Wheat plants were inoculated with Puccinia triticina (Brown rust) 24 hours after treatment. A track sprayer was used to treat the plants with the mixture of commercial fungicide and test compound using a water volume of 200 L/ha. Four replicates were used for each combination of fungicide, pathogen and test compound. Each plant was evaluated at fourteen days (once the disease symptoms were fully expressed) for % control of the disease. Appropriate controls were used for all experiments, including an ‘inoculation check’ wherein plants were inoculated with their specific pathogen to assess disease levels. Also, each commercial fungicide was tested on its own as a part of each treatment, this being benchmark against which the experimental compounds were evaluated. […] That is, the present compounds, although not fungicidal by themselves, enhance the activity of fungicides, thus the enhancer compounds work synergistically in combination with fungicides to control disease. • Amistar (0.04 L/ha) • Imtrex (0.45 L/ha) • Proline (0.15 L/ha) • Balaya (0.25 L/ha)

[2] = tested on: Amaranthus retroflexus (pigweed); experiment: Enhancement of herbicide activity: pre-emergence Amaranthus kill with metribuzin; format: in vivo; details: for pest or weed control at 100 g/ha: Amaranthus retroflexus; for enhancement of metribuzin herbicidal activity: compound at 100 g/ha with metribuzin, at seven and fourteen days
Method: Specifically, Amaranthus retroflexus (pigweed) was treated pre-emergence with metribuzin alone or in combination with an enhancer compound disclosed herein. Fifteen seeds of Amaranthus retroflexus were sown in soil in each pot and then sprayed with a mixture of metribuzin at the appropriate rate shown in Table 5 and the compound of this invention at 100 g/ha using a track sprayer at a water volume of 200 L/hectare. Small amounts of acetone were used to aid solubility. The pots were watered immediately after sowing and treatment and then allowed to stand in a glasshouse. Assessment of kill was made seven and fourteen days after treatment. The test included four replicates for each treatment and the control.

[3] = 168 h, read-out: Pre-Emergence Amaranthus Kill Percentage, Assessed 7 DAT, Metribuzin rate 50 g/ha
[4] = 168 h, read-out: Pre-Emergence Amaranthus Kill Percentage, Assessed 7 DAT, Metribuzin rate 100 g/ha
[5] = 168 h, read-out: Pre-Emergence Amaranthus Kill Percentage, Assessed 7 DAT, Metribuzin rate 200 g/ha
[6] = 336 h, read-out: Pre-Emergence Amaranthus Kill Percentage, Assessed 14 DAT, Metribuzin rate 50 g/ha
[7] = 336 h, read-out: Pre-Emergence Amaranthus Kill Percentage, Assessed 14 DAT, Metribuzin rate 100 g/ha
[8] = 336 h, read-out: Pre-Emergence Amaranthus Kill Percentage, Assessed 14 DAT, Metribuzin rate 200 g/ha

| SMILES | Inhibition (apyrase) | Amistar (% control of the disease, compound + fungicide) [1] [%] | Balaya (% control of the disease, compound + fungicide) [1] [%] | Imtrex (% control of the disease, compound + fungicide) [1] [%] | Proline (% control of the disease, compound + fungicide) [1] [%] | also measured |
| --- | --- | --- | --- | --- | --- | --- |
| COc1cccc(NS(=O)(=O)c2ccc(-c3ccccc3)cc2)c1 [Compound A-3, N-(3-methoxyphenyl)-[1,1′-biphenyl]-4-sulfonamide] | A (A is inhibition above 30%) | 81.4 | 38.9 | 47.6 | 3.8 | pest or weed control at 100 g/ha [2, 3]: 15.6%; pest or weed control at 100 g/ha [2, 4]: 68.9%; pest or weed control at 100 g/ha [2, 5]: 34%; pest or weed control at 100 g/ha [2, 6]: 21.7%; pest or weed control at 100 g/ha [2, 7]: 72%; pest or weed control at 100 g/ha [2, 8]: 38.5%; enhancement of metribuzin herbicidal activity [2]: significant enhancement |
| Cc1ccc(C)c(NS(=O)(=O)c2ccc(-c3ccccc3)cc2)c1 [Compound A-5, N-(2,5-dimethylphenyl)-[1,1′-biphenyl]-4-sulfonamide] | A (A is inhibition above 30%) | 89.2 | 13.0 | 24.3 | 15.1 | – |
| O=C1Cc2cc(NS(=O)(=O)c3ccc(-c4ccccc4)cc3)ccc2N1 [Compound A-8, N-(2-oxoindolin-5-yl)-[1,1′-biphenyl]-4-sulfonamide] | A (A is inhibition above 30%) | 72.9 | 77.2 | 47.8 | 13.3 | pest or weed control at 100 g/ha [2, 3]: 12.8%; pest or weed control at 100 g/ha [2, 4]: 28.6%; pest or weed control at 100 g/ha [2, 5]: 100%; pest or weed control at 100 g/ha [2, 6]: 18.8%; pest or weed control at 100 g/ha [2, 7]: 35.7%; pest or weed control at 100 g/ha [2, 8]: 100%; enhancement of metribuzin herbicidal activity [2]: significant enhancement |
| Cc1ccccc1NS(=O)(=O)c1ccc(-c2ccccc2)cc1 [Compound A-9, N-(o-tolyl)-[1,1′-biphenyl]-4-sulfonamide] | A (A is inhibition above 30%) | 65.5 | 54.9 | −13.9 | 12.4 | – |
| CN(c1ccccc1)S(=O)(=O)c1ccc(-c2ccccc2)cc1 [Compound A-10, N-methyl-N-phenyl-[1,1′-biphenyl]-4-sulfonamide] | A (A is inhibition above 30%) | 87.4 | 56.5 | 15.0 | 4.2 | – |
| O=S(=O)(Nc1cccc(C(F)(F)F)c1)c1cnc(-c2ccccc2)nc1 [Compound A-37, 2-phenyl-N-(3-(trifluoromethyl)phenyl)pyrim-idine-5-sulfonamide] | B (B is inhibition from 20% to 30%) | 58.7 | 78.0 | 12.7 | −1.2 | – |
| Cc1cccc(NS(=O)(=O)c2ccc(C3CCCCC3)cc2)c1 [Compound A-64, 4-cyclohexyl-N-(m-tolyl)benzenesulfonamide] | A (A is inhibition above 30%) | 69.5 | −75.9 | −15.4 | 2.9 | – |
| O=S(=O)(Nc1ccc2c(c1)CCCN2)c1ccc(-c2ccccc2)cc1 [Compound A-99, N-(1,2,3,4-tetrahydroquinolin-6-yl)-[1,1′-biphenyl]-4-sulfonamide] | A (A is inhibition above 30%) | 71.4 | 84.1 | 16.1 | 5.7 | – |
| CCCc1ccc(S(=O)(=O)Nc2ccc(Cn3cccn3)cc2)cc1 [Compound A-111, N-(4-((1H-pyrazol-1-yl)methyl)phenyl)-4-propylbenzenesulfonamide] | D (D is inhibition of 0% to 10%) | – | – | – | – | – |
| CCCc1ccc(S(=O)(=O)Nc2ccccc2Cn2cncn2)cc1 [Compound A-113, N-(2-((1H-1,2,4-triazol-1-yl)methyl)phenyl)-4-propylbenzenesulfonamide] | D (D is inhibition of 0% to 10%) | – | – | – | – | – |
| O=S(=O)(c1ccc(-c2ccccc2)cc1)N1CCc2ccccc21 [Compound A-114] | D (D is inhibition of 0% to 10%) | – | – | – | – | – |
| CCCc1ccc(S(=O)(=O)Nc2ccc3c(c2)CCN3C(C)=O)cc1 [Compound A-115, N-(1-acetylindolin-5-yl)-4-propylbenzenesulfonamide] | A (A is inhibition above 30%) | – | – | – | – | – |
| O=S(=O)(Nc1cccc(Cl)c1N1CCOCC1)c1ccc(-c2ccccc2)cc1 [Compound A-116, N-(3-chloro-2-morpholinophenyl)-[1,1′-biphenyl]-4-sulfonamide] | A (A is inhibition above 30%) | 68.0 | 24.2 | 48.4 | 14.6 | – |
| CCN1CCCC(NS(=O)(=O)c2ccc(-c3ccccc3)cc2)C1 (centres unmarked) [Compound A-117, N-(1-ethylpiperidin-3-yl)-[1,1′-biphenyl]-4-sulfonamide] | D (D is inhibition of 0% to 10%) | – | – | – | – | – |
| CCCC(=O)Nc1cccc(NS(=O)(=O)c2ccc(CCC)cc2)c1C [Compound A-118, N-(2-methyl-3-((4-propylphenyl)sulfonamido)phenyl)butyramide] | D (D is inhibition of 0% to 10%) | – | – | – | – | – |
| CCCc1ccc(S(=O)(=O)Nc2ccc(Cl)c(NC(C)=O)c2)cc1 [Compound A-119, N-(2-chloro-5-((4-propylphenyl)sulfonamido)phenyl)acetamide] | D (D is inhibition of 0% to 10%) | – | – | – | – | – |
| CCCc1ccc(S(=O)(=O)Nc2ccc(-c3nc(C)cc(=O)[nH]3)cc2)cc1 [Compound A-120, N-(4-(4-methyl-6-oxo-1,6-dihydropyrimidin-2-yl)phenyl)-4-propylbenzenesulfonamide] | B (B is inhibition from 20% to 30%) | – | – | – | – | – |
| CCCc1ccc(S(=O)(=O)Nc2cc(Cl)ccc2-n2cncn2)cc1 [Compound A-122, N-(5-chloro-2-(1H-1,2,4-triazol-1-yl)phenyl)-4-propylbenzenesulfonamide] | C (C is inhibition from 10% to 20%) | – | – | – | – | – |
| CSc1nnc(C(C)(C)C)c(=O)n1N [None (metribuzin only), metribuzin, reference compound] | – | – | – | – | – | pest or weed control at 100 g/ha [2, 3]: 0%; pest or weed control at 100 g/ha [2, 4]: 15.2%; pest or weed control at 100 g/ha [2, 5]: 60.9%; pest or weed control at 100 g/ha [2, 6]: 7.7%; pest or weed control at 100 g/ha [2, 7]: 38.3%; pest or weed control at 100 g/ha [2, 8]: 74% |
